# Active and inactive are the calls of the source. The calls are words filed in the database; no cut-off is given here.
# Key:
# BXPC-3 [1] = test: Antiproliferative activity against human BxPC3 cells assessed as reduction in cell viability at 2 uM by MTT assay relative to control; type: functional; settings: Homo sapiens, BXPC-3
# [2] = target: T1, Bromodomain-containing protein 4 (Homo sapiens, UniProt O60885); test: Inhibition of BRD4 bromodomain1 (unknown origin) using peptide H4 as substrate incubated for 15 mins followed by substrate addition and measured after 1 hr by alphascreen assay
# [3] = target: T1, Bromodomain-containing protein 4; test: Inhibition of BRD4 bromodomain2 (unknown origin) using peptide H4 as substrate incubated for 15 mins followed by substrate addition and measured after 1 hr by alphascreen assay
# HL-60 = test: Antiproliferative activity against human HL60 cells assessed as reduction in cell viability by MTT assay; type: functional, cell-based
# Raji = test: Antiproliferative activity against human Raji cells assessed as reduction in cell viability at 2 uM by MTT assay relative to control; type: functional; settings: Homo sapiens, Raji
# [4] = Metabolic stability in rat liver microsomes assessed as residue remaining at 10 uM incubated for 20 and 40 mins; type: ADME, Microsome; settings: read-out: Stability
# [5] = Metabolic stability in mouse liver microsomes assessed as residue remaining at 10 uM incubated for 20 and 40 mins; type: ADME, Microsome; settings: read-out: Stability
# [6] = Metabolic stability in human liver microsomes assessed as residue remaining at 10 uM incubated for 20 and 40 mins; type: ADME, Microsome; settings: read-out: Stability
# BXPC-3 [7] = test: Antitumor activity against human BxPC3 cells xenografted in BALB/c SCID mouse assessed as reduction in tumor growth inhibition at 50 mg/kg, ip measured on day 14 relative to control; type: functional; settings: BXPC-3, ip, 336 h, read-out: TGI
# BXPC-3 [8] = test: Antitumor activity against human BxPC3 cells xenografted in BALB/c SCID mouse assessed as reduction in tumor growth inhibition at 5 mg/kg, ip measured on day 14 relative to control; type: functional; settings: BXPC-3, ip, 336 h, read-out: TGI
# [9] = Toxicity in BALB/c SCID mouse assessed as reduction in body weight at 5 and 50 mg/kg, ip measured on day 14; type: organism-based; settings: in vivo
# [10] = Drug localization in nuclei of human BxPC3 cells at 2 uM incubated for 0.5 hrs by Hoechst 33342 staining based microscopic analysis; type: ADME, cell-based; settings: bxpc-3, 0.5 h
# BXPC-3 [11] = test: Antitumor activity against human BxPC3 cells xenografted in BALB/c SCID mouse assessed as suppression of cell proliferation at 50 mg/kg, ip measured on day 14 by Ki-67 staining based assay; type: functional, organism-based
# Mus musculus [12] = test: Down regulation of c-Myc in BALB/c SCID mouse xenogrfted with human BxPC3 cells at 50 mg/kg, ip measured on day 14 by immunohistochemical analysis; type: functional, organism-based
# Mus musculus [13] = test: Upregulation of […] in BALB/c SCID mouse xenogrfted with human BxPC3 cells at 50 mg/kg, ip measured on day 14 by immunohistochemical analysis; type: functional, organism-based
# BXPC-3 [14] = test: Inhibition of colony formation in human BxPC3 cells at 2 uM relative to control; type: functional
# BXPC-3 [15] = test: Antitumor activity against human BxPC3 cells xenografted in BALB/c SCID mouse assessed as reduction in tumor growth inhibition at 30 mg/kg, ip bid measured on day 14 relative to control; type: functional; settings: BXPC-3, ip, 336 h, read-out: TGI
Structure (SMILES),inhibition at 2 µM (BXPC-3 [1]),IC50 [2],IC50 [3],IC50 (HL-60),inhibition at 2 µM (Raji),"remaining at 40 min, 10 µM [4]","remaining at 40 min, 10 µM [5]","remaining at 40 min, 10 µM [6]",inhibition in vivo at 50 mg/kg (BXPC-3 [7]),inhibition in vivo at 5 mg/kg (BXPC-3 [8]),Activity [9],Drug uptake [10],Activity (BXPC-3 [11]),Activity (Mus musculus [12]),Activity (Mus musculus [13]),inhibition at 2 µM (BXPC-3 [14]),inhibition in vivo at 30 mg/kg (BXPC-3 [15])
Cc1noc(C)c1-c1ccc(Oc2ccc(NS(C)(=O)=O)cc2-c2cn(C)c(=O)c3cncn23)cc1,26.4%,141 nM,153 nM,1120 nM,23.7%,–,–,–,–,–,–,–,–,–,–,–,–
CCS(=O)(=O)Nc1ccc(Oc2ccc(-c3c(C)noc3C)cc2)c(-c2cn(C)c(=O)c3cncn23)c1,23.2%,64 nM,50 nM,510 nM,22.9%,59.1%,48.2%,54.3%,–,–,–,–,–,–,–,–,–
CCS(=O)(=O)Nc1ccc(Oc2ccc(C(C)C)cc2)c(-c2cn(C)c(=O)c3cncn23)c1,35.4%,49 nM,36 nM,110 nM,50.4%,3.9%,17.2%,13.1%,–,–,–,–,–,–,–,–,–
CCS(=O)(=O)Nc1ccc(Oc2cccc(-c3c(C)noc3C)c2)c(-c2cn(C)c(=O)c3cncn23)c1,25.1%,92 nM,81 nM,530 nM,19.7%,–,–,–,–,–,–,–,–,–,–,–,–
CCS(=O)(=O)Nc1ccc(Oc2ccc(F)cc2)c(-c2cn(C)c(=O)c3cncn23)c1,38.4%,30 nM,29 nM,45 nM,39.5%,76.2%,65.6%,95.2%,65%,22%,Non-Toxic,Active,Active,Active,Active,> 50%,–
O=c1[nH]cc(F)c(=O)[nH]1 [FLUOROURACIL],–,–,–,–,–,–,–,–,–,–,–,–,–,–,–,–,67%
Cn1cc(-c2cc(NS(C)(=O)=O)ccc2Oc2ccc(Br)cc2)n2cncc2c1=O,34.8%,37 nM,44 nM,230 nM,33.1%,54.2%,61.2%,66.7%,–,–,–,–,–,–,–,–,–
CCS(=O)(=O)Nc1ccc(Oc2ccc(F)cc2F)c(-c2cn(C)c(=O)c3[nH]ccc23)c1 [MIVEBRESIB],42.7%,39 nM,47 nM,120 nM,51.2%,69%,60.9%,60.8%,–,–,–,–,–,–,–,–,–
